PubChem BioAssay (NCI)
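Following 48 hours of exposure in 96-well plates, responses at five concentrations were used to interpolate endpoints linearly. GI50: concentration for 50% inhibition of growth. TGI denotes the concentration required for complete inhibition of growth.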

What was measured:
Assay in all cases: DTP human tumour cell line panel, 48 h
[1] = tested on: OVCAR-4 ovarian
[2] = tested on: UACC-257 melanoma
[3] = tested on: U251 CNS
[4] = tested on: SK-MEL-28 melanoma
[5] = tested on: OVCAR-3 ovarian
[6] = tested on: HT29 colon
[7] = tested on: CCRF-CEM leukemia
[8] = tested on: MDA-MB-231 breast
[9] = tested on: SN12C renal
[10] = tested on: HCC-2998 colon

| SMILES | TGI [1] [µM] | TGI [2] [µM] | TGI [3] [µM] | TGI [4] [µM] | TGI [5] [µM] | TGI [6] [µM] | TGI [7] [µM] | TGI [8] [µM] | TGI [9] [µM] | TGI [10] [µM] | GI50 [1] [µM] | GI50 [2] [µM] | GI50 [3] [µM] | GI50 [4] [µM] | GI50 [9] [µM] | GI50 [5] [µM] | GI50 [6] [µM] | GI50 [7] [µM] | GI50 [8] [µM] |
| --- | --- | --- | --- | --- | --- | --- | --- | --- | --- | --- | --- | --- | --- | --- | --- | --- | --- | --- | --- |
| O=S(=O)(O)c1ccc2cc(N=Nc3cc(S(=O)(=O)O)c4cccnc4c3O)ccc2c1 | > 100 | > 100 | > 100 | > 100 | > 100 | > 100 | > 100 | > 100 | – | – | – | – | – | – | – | – | – | – | – |
| c1cncc(C2c3[nH]c4ccccc4c3CCN2CCN2CCCCC2)c1 (stereo not drawn) | > 100 | 99.4 | > 100 | > 100 | > 100 | > 100 | > 100 | – | > 100 | > 100 | – | – | – | – | – | – | – | – | – |
| Cc1ccc(S(=O)(=O)ON/N=C2/C3OC3[C@@H]3CCCC[C@H]23)cc1 (stereo partly drawn) | > 100 | 32.5 | > 100 | > 100 | > 100 | > 100 | > 100 | – | > 100 | > 100 | – | – | – | – | – | – | – | – | – |
| C=CCN(N=O)C(=O)N(CCC)CCCC(NC(C)=O)C(=O)NCc1ccccc1 (stereo not drawn) | > 100 | > 100 | > 100 | > 100 | > 100 | > 100 | > 100 | – | > 100 | – | – | – | – | – | – | – | – | – | – |
| OCCCNCc1ccccn1 | > 100 | > 100 | > 100 | > 100 | > 100 | > 100 | > 100 | > 100 | > 100 | – | – | – | – | – | – | – | – | – | – |
| CCCN(CCCCC(NC(C)=O)C(=O)NCc1ccccc1)C(=O)NC (stereo not drawn) | > 100 | > 100 | > 100 | > 100 | > 100 | > 100 | > 100 | – | > 100 | > 100 | – | – | – | – | – | – | – | – | – |
| CCc1cccc(C)c1NC(=O)CC1Sc2ccccc2NC1=O (stereo not drawn) | > 100 | 57.7 | > 100 | > 100 | > 100 | – | > 100 | – | > 100 | 81.2 | – | – | – | – | – | – | – | – | – |
| c1ccc(COc2ccc3[nH]c4c(ncc5[nH]c6ccccc6c54)c3c2)cc1 | – | 32.8 | 24.4 | 31.6 | 30.3 | 17.8 | 40.7 | – | 29.7 | 23.6 | – | – | – | – | – | – | – | – | – |
| O=[N+]([O-])/C=C\c1ccc2c(c1)OCO2 | 24.2 | 3.77 | 5.02 | 16.4 | 15.2 | 4.89 | 25 | 27.5 | 30.3 | – | 11.8 | 1.64 | 1.95 | 4.7 | 11.4 | 4.1 | 2.07 | 3.9 | 12.1 |
| OC1CCC(C2C3CCCCC3C3CCCCC3C2C2CCC(O)CC2)CC1 (stereo not drawn) | 16 | 33.4 | 14 | 9.59 | > 100 | 3.96 | – | 9.66 | > 100 | – | – | – | – | – | – | – | – | – | – |
| CCCCCCCCCCCCC(SCCNC(=O)CCNC(=O)C(O)C(C)(C)COP(=O)(O)OP(=O)(O)OCC1OC(n2cnc3c(N)ncnc32)C(O)C1OP(=O)(O)O)C(=O)NCC(N)=O (stereo not drawn) | > 100 | > 100 | > 100 | > 100 | > 100 | > 100 | > 100 | – | > 100 | > 100 | – | – | – | – | – | – | – | – | – |
| c1cc2c(cnc3cscc32)s1 | > 100 | > 100 | > 100 | > 100 | > 100 | > 100 | > 100 | – | > 100 | > 100 | – | – | – | – | – | – | – | – | – |
| C=C1C(O)C2C(=C(CC(C)C)C13CC3)C(=O)C(C)(C)C2OC (stereo not drawn) | > 100 | > 100 | > 100 | > 100 | > 100 | > 100 | > 100 | > 100 | > 100 | – | > 100 | > 100 | > 100 | > 100 | > 100 | > 100 | > 100 | 86.6 | > 100 |
| COC(=O)/C(=N/NC(C)(C)C)C(C(=O)C=C(C)C)C(=O)C(=O)Nc1ccc(Cl)cc1C (stereo not drawn) | > 100 | > 100 | > 100 | > 100 | > 100 | > 100 | > 100 | – | > 100 | > 100 | – | – | – | – | – | – | – | – | – |
| CN(C)CCNC(=O)c1cc([N+](=O)[O-])cc2ccc(-c3ccccc3)nc12 | 13 | 20.8 | 32 | 27.4 | 54.3 | 40 | 13.6 | – | > 62.7 | 20.3 | – | – | – | – | – | – | – | – | – |
| CC(C)(C)N=CN1CCC(C(c2ccccc2)c2ccccc2)CC1 | > 100 | > 100 | > 100 | > 100 | > 100 | 56.5 | – | – | > 100 | – | – | – | – | – | – | – | – | – | – |
| Cc1c2ncccc2c(C)c2c1[nH]c1ccccc12 | 43.4 | 32 | 24.7 | 28.9 | 28.3 | 25.7 | 35.3 | – | 26 | 25.7 | – | – | – | – | – | – | – | – | – |
| O=C(N=Nc1c(O)[nH]c2ccccc12)c1ccccc1O | > 100 | > 100 | 72.2 | > 100 | > 100 | > 100 | > 100 | – | > 100 | > 100 | – | – | – | – | – | – | – | – | – |
| CCOC(OC1=C(C#N)CCC1)C(CC)[Se]c1ccccc1 (stereo not drawn) | 33.1 | > 100 | 23.9 | 90.4 | 58.5 | 80.5 | > 100 | – | 32.3 | 83.8 | – | – | – | – | – | – | – | – | – |
| Cc1cc2occ(C)c(=O)c2c2c1OC(C)(C)S2 | > 100 | > 100 | > 100 | > 100 | > 100 | > 100 | > 100 | – | > 100 | > 100 | – | – | – | – | – | – | – | – | – |
| c1c[nH]c(Cc2ncc(Cc3cnc[nH]3)[nH]2)n1 | > 100 | – | > 100 | > 100 | > 100 | > 100 | 58.7 | – | > 100 | > 100 | – | – | – | – | – | – | – | – | – |
| Cc1c(C(=O)CC(=O)C(=O)NC2C3CC4CC(C3)CC2C4)[n+](=O)c2ccccc2n1[O-] (stereo not drawn) | > 100 | > 100 | > 100 | > 100 | 85.1 | > 100 | > 100 | – | > 100 | > 100 | – | – | – | – | – | – | – | – | – |
